Experimental data taken from US10583109B2, “Use of silver(I) complexes as anticancer agents” (University of Johannesburg, priority 2012, dated 2020).

Assays:
[1] = test system: Caspase-3/7; test: Caspase-Glo 3/7 assay in SNO-oesophageal cancer cells; format: cell-based; details: 100 μM, 24 hours treatment
Procedure: The Caspase-Glo®3/7 assay was used to confirm that the structural changes observed are due to apoptotic cell death. In this luminescent based assay, a 1:1 ratio of the Caspase-Glo® reagent was added to treated cells into a microtiter plate. The plate was gently agitated for 30 seconds and incubated for 30 minutes at room temperature. The whole luminescent intensity was measured using a Synergy HT Multi-Detection Microplate reader, where the intensity of the luminescence is proportional to the Caspase-3/7 concentration.
The error bars where constructed based on the standard error of the mean (SEM) where n=6. The significant difference were calculated with respect to the vehicle control (P<**0.001). A relative increase in expression was observed throughout.

[2] = test system: SNO-oesophageal cancer cells; format: cell-based; details: 100 μM, 24 hour treatment
Procedure: The SNO-oesophageal cancer cells were cultured in Dulbecco's modified Eagles medium (DMEM) containing 10% Foetal bovine serum (FBS), 0.8% Penicillin/Streptomycin/Fungizone and 0.2% Gentamycin. The SNO-oesophageal cancer cells were subcultured every 48 hours and incubated at 37° C. under a 5% CO2 humidified atmosphere. After 48 hours the cells were trypsinized and plated (6×10^5 cells) in 3.5 cm culture dishes and left to cultivate for 24 hours.
MCF-7 breast cancer cells, in terms of a first study, and SNO-oesophageal cancer cells, in terms of a second study, were treated with 10 μM silverthiocyanide complexes (1)-(5), as well as their ligands (Ligand-1 to Ligand-5) over a 24 hour incubation period. These complexes were dissolved in 0.1% Dimethyl sulfoxide (DMSO). The DMSO alone (vehicle control) decreased the viability with approximately 2.2%, signifying its minimal influence in cancer cell growth. For comparative purposes, 100 μM Cisplatin (CDDP) and 25% H2O2 was included which respectively serves as the apoptotic and necrotic controls. Cisplatin was prepared in 0.9% NaCl, whereas H2O2 was prepared in the supplemented DMEM media right before treatment. An untreated negative control (UT) was exposed to similar conditions as the treated cells and monitored during the experimental study.
An AlamarBlue® Viability® (Serotec, UK) assay was performed after a 24 hour treatment with complexes (1)-(5) and their ligands (Ligand-1 to Ligand-5, respectively) to evaluate the cellular effect the instant complexes (and their ligands) may have on the cancer cells. AlamarBlue® dye (10%) was incubated with trypsinized cells over a 2 hour period before the fluorescence was measured with a Synergy HT Multi-Detection Microplate reader (BioTek, Winooski, Vt.) at wavelengths of 530 nm and (excitation) and 590 nm (emission). This fluorescent based assay in particular involves the metabolic oxidation-reduction reaction of resazurin to a reduced resorufin product that is directly proportional to the amount of viable cells.
The percentage cellular viability of differentially treated SNO-oesophageal cells was determined using an AlamarBlue® assay, as depicted in FIG. 7. Different controls (grey) were included: untreated, 0.1% DMSO solvent and apoptotic control (100 μM Cisplatin) as well as the corresponding ligands (10 μM) of complexes (1)-(5). Cells were treated with silver(I) thiocyanate phosphine complexes (1)-(5) at a concentration of 10 μM. The percentages were calculated with respect to the control and error bars were constructed on the basis of Standard Error of the Mean (SEM) where n=9 except for the ligand of compound 4 (n=8). The P-values (*P<0.001 and **P<0.0001) were determined with the Student's T-test to evaluate the significant difference.
The cells were thereafter treated with complexes (6)-(9) at a concentration of 10 μM prepared in 0.1% DMSO. Treatment with either 25% H2O2 or 100 μM CDDP served as controls for necrosis and apoptosis respectively. The CDDP was prepared in 0.9% NaCl while the H2O2 was diluted with supplemented DMEM prior to treatment.
A suspension (100 μl) of the differentially treated cells was added in triplicate to a microtiter plate. In the dark, AlamarBlue® dye (10 μl) was added to each well containing a sample, followed by a 2 hour incubation in a 5% CO2 incubator at 37° C. The fluorescence was read on a Synergy HT Multi-Detection Microplate reader at a wavelength of 530 nm and (excitation) and 590 nm (emission). In terms of this study, the apoptotic control CDDP (100 μM) was included. Error bars represent the standard error of the mean (SEM) where n=9. The Student's T-test was used to determine the significant difference of the treatments with respect to DMSO (P*<0.05 and P**<0.001). The silver(I) nitrate phosphine complexes under evaluation decreased the cancer cell viability to a large extent compared to DMSO except complex (9).
SNO-oesophageal cancer cells were a gift from the University of Pretoria, RSA. […]

[3] = test system: A375 malignant melanoma cancer cells; test: AlamarBlue viability and proliferation assay of A375 malignant melanoma cancer cells; format: cell-based, human; details: concentration range 1.0 μM-10.0 μM, viability as percentage of 1.0% DMSO vehicle control, quadratic equation
Procedure: A375 melanoma cancer cells originate from an immortal cell line from human malignant melanoma from skin (ATCC no CRL-1619).
A375 malignant melanoma cancer cells were cultured in Dulbecco's Modified Eagle's Medium (DMEM), 13.53 g/L with sodium bicarbonate (NaHCO3), 3.7 g/L supplemented with 10% fetal bovine serum (FBS), and 1% Penicillin/Streptomycin/Fungizone in 75 cm^3 sterile culture flasks. Cells were incubated at 37° C. with 5% CO2 in a humidified atmosphere and were subcultured twice a week. Cells were subcultured every 48 hours and used between Passages 3 and 7. […]
An AlamarBlue® (Serotec, UK) assay was done to investigate the proliferation capabilities of the differentially treated cells. AlamarBlue® dye (10%) was incubated with trypsinized cells over a 2-hour period before the fluorescence was measured with a Synergy HT Multi-Detection Microplate reader (BioTek, Winooski, Vt.) at wavelengths of 530 nm and (excitation) and 590 nm (emission). […]
Treatment volumes were 1.0 μL of 1-10 μM range of stock solutions. Fluorescence was measured with 530 nm excitation wavelength and 590 nm emission wavelength. FIG. 21 represents 3 biological repeats measured in triplicate. DMEM reference blanks were averaged and subtracted from all readings and cellular viability values were calculated as percentage of the 1.0% DMSO vehicle control (VC). […]

[4] = test system: A375 malignant melanoma cancer cells; test: Celltitre-Glo Luminescent Cell Viability Assay (ATP) in A375 cells; format: cell-based, human; details: 10 µM
Procedure: (§1) For purposes of the Celltitre-Glo™ Luminescent Cell Viability [Promega, USA] assay, a 1:1 mixture of cell sample to Celltitre-Glo™ substrate/buffer mix reagent, in duplicate, was added to 96-well black plate, shaken for 30 seconds at room temperature and then further incubated for 30 minutes. Whole luminescence was then measured with a Synergy HT Multi-Detection Microplate Reader. The CytoTox-ONE™ Homogenous Membrane Integrity [Promega, USA] assay is a rapid fluorescent assay that measures the level of lactate dehydrogenase leaked from damaged membranes, therefore, the amount of fluorescence measured is directly proportional to the amount of lysed/damaged cells. In triplicate, a 1:1 cell sample to CytoTox-ONE™ substrate/buffer mix reagent was added to a 96-well clear plate, shaken for 30 seconds followed by incubation for 10 minutes. A CytoTox-ONE™ stop solution was added to each sample followed by a further 30 second shake on an orbital shaker. […] The fluorescence was then measured with a Synergy HT Multi-Detection Microplate Reader at an excitation wavelength of 530 nm and emission wavelength of 590 nm. FIG. 25 depicts the percentage ATP and Lactate Dehydrogenase (LDH) measured in differentially treated A375 malignant melanoma cancer cells as determined by the Celltitre-Glo™ Luminescent Cell Viability Assay and CytoTox-ONE™ Membrane Integrity Assay respectively. […]

[5] = test system: Caspase 3/7; test: Caspase-GLO 3/7 assay in A375 cells; format: cell-based, human; details: 10 μM, 24 hour treatments
Source text: Caspase-GLO™ 3/7, 8 and 9 Assays are luminescent assays that measure Caspase activities, which have key effector functions in intrinsic and extrinsic apoptosis, therefore the amount of luminescence measured is proportional to the amount of Caspase activity present. The assays are based on the principle that after Caspase cleavage, a substrate containing the tetrapeptide DEVD sequence binds with Caspase and is released for a luminescent reaction with a thermostable luciferase enzyme. In duplicate, a 1:1 cell sample to Caspase-Glo™ substrate/buffer mix reagent was added into 96-well black plates, then shaken for 30 seconds at room temperature followed by a 1 hour incubation. Whole luminescence was then measured with a Synergy HT Multi-Detection Microplate Reader.
FIG. 26 depicts Caspase 3/7, 8 and 9 levels in differentially treated A375 malignant melanoma cancer cells as determined by relative luminescence recorded using Caspase-GLO™ assays. Caspase levels represented as a percentage of 1.0% DMSO Vehicle Control (VC) set at 100%. Cells treated with: CDDP=100 μM Cisplatin Positive Apoptotic Control and then 10 μM concentrations of complex (13) and complex (14). […]

[6] = test system: A375 malignant melanoma cancer cells; test: CytoTox-ONE Membrane Integrity Assay (LDH) in A375 cells; format: cell-based, human; details: 10 µM
Procedure: as §1

Compound | Caspase induction [1] | cells killed [2] | IC50 [3] | ATP levels (cellular viability) [4] | Caspase 3/7 levels compared to the VC [5] | LDH levels compared to the VC [6]
N.N.[Cl][Pt][Cl] [Cisplatin, reference compound] | 2 fold increase | ~74% |  |  |  | 
[Br][Ag]([PH](c1ccccc1)(c1ccccc1)c1ccccc1)([PH](c1ccccc1)(c1ccccc1)c1ccccc1)[PH](c1ccccc1)(c1ccccc1)c1ccccc1 [complex (13), AgBr(PPh3)3] |  |  | 5.16 µM | less than 20% | increased | significant increase
O=[N+]([O-])[O-].[Ag+].c1ccc(P(c2ccccc2)c2ccccc2)cc1.c1ccc(P(c2ccccc2)c2ccccc2)cc1.c1ccc(P(c2ccccc2)c2ccccc2)cc1 [complex (14), AgNO3(PPh3)3] |  |  | 6.77 µM |  | increased | significant increase
